Format in all cases: physicochemical
The nature of data set [1]: Static headspace measurement of aroma release from a liquid phase to the vapour phase versus redox potential modified by gas bubbling. The following applies: for change of mass sharing coefficient Ki when the redox potential of the first liquid phase is lowered: liquid phase/gas phase; for effect of redox on aroma release/retention (headspace): FIG. 3, 4, 5. An excerpt:
The study of the checking of the mass sharing coefficient Ki of an organic compound (i) between two phases, respectively a first liquid phase and a second vapour phase, as a function of the redox potential value includes the quantification of the organic compound (i) in the vapour phase at equilibrium, by the static headspace technique. In the examples, the method of the invention is illustrated with aroma-type organic compounds (i).
The static headspace technique consists in analyzing the vapours in equilibrium above a solution placed in a confined atmosphere at a given temperature. The vapour analysis in gas chromatography (CPG) gives the volatile compound concentration of the “head space”.
The aroma solutions are prepared in a solution of 50 mM NaCl, the pH of which has been adjusted to pH 3 with HCl (1N) or at pH 7.5 with NaOH (1N).
Furthermore, tests have also been realized in the presence of a lactoserum protein, the β-lactoglobuline, dispersed (3%) in a solution of 50 mM NaCl at pH 3 or pH 7.5, or in whole or skimmed milk.
The redox is modified by bubbling a gas (hydrogen, nitrogen, helium, or oxygen) at a flowrate of 20 mL.min^−1 for a previously determined time (8 min). The redox measurement is realized after the gas bubbling step with a redox measurement electrode connected to a pH meter-voltameter. The thus prepared solutions are distributed on the basis of 10 mL in brown flasks of 40 mL (Supelco, France) closed by Mininert valve plugs (Supelco). […]
A control is realized in the presence of air: the bubbling step is not realized, only the pressurization occurs, in the same conditions as the other gasses.
The flasks are then equilibrated in a water bath at 30° C. for 1 hr 30. At least 3 brown flasks are prepared for each gas, a flask serving only for one injection.
At the equilibrium, 1 mL of vapour phase is taken with a 1 mL gas syringe (SGE), then injected in a gas chromatograph (CPG) provided with a DB-WAX column (J&W Scientific, diameter 0.32 mm, length 30 m, phase thickness 0.5 μm) and a flame ionization detector. The injector and detector temperatures are respectively 250° C. and 260° C. The vector gas velocity (hydrogen) at 143° C. is of 37 cm.sec-^1. The signal acquisition is achieved with a chromatogram acquisition and treatment software developed in the laboratory.
Thus, the amount of aroma present in the vapour phase is determined for each gas.

A short description of data set [2]: Evaluation of the aroma losses during gas bubbling (Tenax entrapment and pentane extraction). The following applies: 50 ppm in NaCl 50 mM pH 7.5. The method, then:
4. Evaluation of the Losses During the Bubbling
The aroma losses upon bubbling have been evaluated by entrapment on an absorbing polymer (Tenax) of the gas effluent at the flask outlet and by extraction of the liquid phase with pentane. The same is done for all the gasses being used.
The loss test is made on a 50 mL of a 2-nonanone solution (50 ppm) in NaCl (50 mM, pH 7.5).
The gas is simultaneously bubbled (8 min) at the same flowrate of 20 mL.min^−1 in the flask, then the gas effluent is entrapped on Tenax at the flask outlet. This Tenax trap is afterwards desorbed on a TCT Chrompak apparatus coupled with a HP chromatograph provided with a FID detector.
The amount of aroma entrapped on Tenax is determined in comparison with an external calibration curve. This calibration curve is obtained as described hereinafter: 1 μl of 2-nonanone solution is deposited in pentane in the glass cotton of the Tenax tube upper part, then the Tenax tube is desorbed in the same conditions as for the analysis. Different concentrations have been tested.
The amount of aroma remaining in the liquid phase is determined by extraction of the aroma solution (5 mL) by pentane (5 mL). One μl of the organic phase is injected in split/splitless in CPG. A comparison is made with an external calibration, obtained by injection of 1 μl of 2-nonanone solution in pentane.

Data set [3] in a line: Retention of aroma between aqueous phase (water) and organic liquid phase (dichloromethane) versus redox. The following applies: water/dichloromethane mixture; FIG. 9. An excerpt:
FIG. 9 illustrates the results of a measurement of the retention degree of 2-nonanone between an aqueous phase (water) and an organic liquid phase (dichloromethane) with non pressurized flasks (diamonds) or pressurized flasks with hydrogen (squares).
The experiment of Example 2 is realized, but in a mixture of water (aqueous phase)/dichloromethane (CH2Cl2, organic phase).

A short description of data set [4]: Static headspace measurement with redox modified by addition of molecules (DTT, potassium ferricyanide). As for the experimental part:
1. Preparation of the Reducing Medium
The reducing medium is obtained by addition of DTT(1,4-dithiothreitol). The ultrapure water employed for the solution preparation is degassed with a high gas flowrate during 1 h. La 2-nonanone solution (50 ppm) is prepared through addition of such aroma into the degassed water; the solution volume has been chosen so that a minimum of air exists between the plug and the solution. The thus prepared solution is stirred for homogenisation for 30 min.
An aliquot of this solution is added with DTT (10 g.l^−1) and then this solution is stirred for 30 min.
In order to prevent the dilution phenomenon, another protocol has been used: the degassed water is added with DTT (10 g.l^−1), then the aroma is added.
The thus prepared solutions are distributed at a level of 10 mL in 40 mL brown flasks (Supelco, France) closed by Mininert valves (Supelco). The flasks are pressurized with nitrogen for 1 min with a flowrate of 260 mL.min^−1. The overpressure is then evacuated. The flasks are then equilibrated during 1 h 30 in a water bath at 30° C. For each one of the conditions, 4 repetitions are realized.
2. Preparation of the Oxidizing Medium
The oxidizing medium is obtained by addition of potassium ferricyanide.
Two aroma solutions are prepared: for solution 1, the 2-nonanone is solubilized in water and then the solution is stirred for 30 min; for solution 2, the potassium ferricyanide is dissolved in water, then the 2-nonanone is added. This solution is afterwards stirred during 30 min.
The thus prepared solutions are distributed at a level of 10 mL in 40 mL brown flasks (Supelco, France) closed by Mininert valves (Supelco).
The flasks are then equilibrated during 1 h 30 in a water bath at 30° C. For each one of the conditions, 4 repetitions are realized.

Molecules are shown by their SMILES.

For `CCCCCCCC(C)=O` [2-nonanone], the “effect of a positive redox potential value on release” value in data set [1] (aqueous liquid phase contacted with 100% oxygen or air (21% oxygen), same with 100% nitrogen) is “favours the release or the transfer”. Also, the “retention within the liquid phase with helium gas” value in data set [1] (aqueous solution pH 7.5, helium, redox +400 mV) is reported as “no significant difference”. Moreover, the “modification of the medium aroma release at low redox (headspace)” value in data set [1] (aqueous solution pH 7.5, hydrogen -320 mV versus nitrogen/oxygen about +500 mV, FIG. 1) is listed as approximately −30%. Moreover, in data set [1] (aqueous solution pH 7.5, hydrogen, non pressurized flask, FIG. 8), the “effect when the atmosphere is neutral or oxidizing and the redox increases” value is given as “effect inverses”. Besides, the “effect at low redox under reducing atmosphere” value in data set [1] (aqueous solution pH 7.5, hydrogen, pressurized flask, FIG. 8) is “retention effect”. Moreover, the “difference of retention depending on the redox” value in data set [1] (aqueous solution with beta-lactoglobuline at 3%, pH 7.5 and acid medium, FIG. 2) is “does not show any difference of retention depending on the redox”. The “modification of the aroma release at low redox (headspace)” value in data set [1] (aqueous solution, acid medium, FIG. 1) is listed as −20%. Moreover, the “effect of a negative level of redox potential on retention” value in data set [1] (liquid phase contacted with gas containing 100% hydrogen) is reported as “favours the 2-nonanone retention in the liquid phase”. The “change of mass sharing coefficient Ki when the redox potential of the first liquid phase is lowered” value (“change … of the first liquid phase is lowered” for short) in data set [1] is reported as “growth of the mass sharing coefficient Ki value”. Further, the “change of mass sharing coefficient Ki at low redox potential” value in data set [1] (skimmed milk, pH 4.6) is recorded as “reduction of the mass sharing coefficient value Ki”. For the same molecule, in data set [1] (skimmed milk, FIG. 7), the “effect at high redox” value was “no effect”. Further, the “retention effect at low redox” value in data set [1] (skimmed milk, FIG. 7) is reported as −20%. Moreover, the “redox effect on the aroma release” value in data set [1] (whole milk, FIG. 7) is “do not show any redox effect”. Also, the “aroma losses during bubbling” value in data set [2] (helium) is 0.5%; in data set [2] (hydrogen) it was 0.3%; in data set [2] (nitrogen) it was 2%; in data set [2] (oxygen), 2.3%; in data set [2] (regardless of the gas employed, bubbling 8 min at 20 mL/min), less than 3%. The “retention in the aqueous phase at low redox” value in data set [3] is recorded as “better retained in the aqueous phase”. For the same molecule, the “effect of reducing the redox potential by a reducing compound” value in data set [4] (aqueous liquid phase, dithiothreitol (DTT) added) is recorded as “favours the 2-nonanone retention in the liquid phase”. For the same molecule, the “effect of increasing the redox potential by an oxidizing compound” value in data set [4] (aqueous liquid phase, potassium ferricyanide added) is on record as “favours the 2-nonanone release or transfer towards the second gas phase”. In data set [4] (water, 50 ppm, DTT 10 g/l versus potassium ferricyanide, FIG. 10), the “release in the vapour phase in a reducing medium versus oxidizing medium” value was “less 2-nonanone released in the vapour phase than in the oxidizing medium”.

As to `C=CCN=C=S` [AITC, allyl isothiocyanate], the “effect of redox on aroma release/retention (headspace)” value in data set [1] (conditions of Examples 2, 3, 4) is given as −30%. In data set [1], the “change … of the first liquid phase is lowered” value is listed as “growth of the mass sharing coefficient Ki value”.

On to `CC(=O)C(C)=O` [diacetyl], for which, in data set [1] (conditions of Examples 2, 3, 4), the “effect of redox on aroma release/retention (headspace)” value is “+20%”. Moreover, the “change … of the first liquid phase is lowered” value in data set [1] is “increase of the mass sharing coefficient Ki”.

For `CCCCCC(=O)OCC` [ethyl hexanoate], in data set [1] (conditions of Examples 2, 3, 4, FIG. 5), the “effect of redox on aroma release/retention (headspace), in words” value is recorded as “no effect”. In data set [1], the “change … of the first liquid phase is lowered” value is “lack of significant modification”.

(Values after patent US20070110885A1, “Method for controlling retention of an organic compound or of a plurality of organic compounds inside a liquid or solid phase and applications of said method, in particular in the agri-food domain” (priority 2002, published 2007).)
